# Assay results as given in ChEMBL document CHEMBL4602719, “Discovery of Potent, Selective, and Orally Bioavailable Inhibitors of USP7 with In Vivo Antitumor Activity” (J Med Chem, 2020).
# The source made the active and inactive calls. The calls are words filed in the database; no cut-off is given here.
# What was measured:
# [1] = biological target: Voltage-gated inwardly rectifying potassium channel KCNH2 (Homo sapiens, UniProt Q12809); test: Inhibition of human ERG
# [2] = biological target: T1, Ubiquitin carboxyl-terminal hydrolase 7 (Homo sapiens, UniProt Q93009); test: Inhibition of recombinant full length USP7 (unknown origin) using ubiquintin-rhodamine as substrate preincubated for 30 mins followed by substrate addition measured after 1 hr by fluorescence-based Envision plate reader assay
# T1 sequence (Q93009 whole entry): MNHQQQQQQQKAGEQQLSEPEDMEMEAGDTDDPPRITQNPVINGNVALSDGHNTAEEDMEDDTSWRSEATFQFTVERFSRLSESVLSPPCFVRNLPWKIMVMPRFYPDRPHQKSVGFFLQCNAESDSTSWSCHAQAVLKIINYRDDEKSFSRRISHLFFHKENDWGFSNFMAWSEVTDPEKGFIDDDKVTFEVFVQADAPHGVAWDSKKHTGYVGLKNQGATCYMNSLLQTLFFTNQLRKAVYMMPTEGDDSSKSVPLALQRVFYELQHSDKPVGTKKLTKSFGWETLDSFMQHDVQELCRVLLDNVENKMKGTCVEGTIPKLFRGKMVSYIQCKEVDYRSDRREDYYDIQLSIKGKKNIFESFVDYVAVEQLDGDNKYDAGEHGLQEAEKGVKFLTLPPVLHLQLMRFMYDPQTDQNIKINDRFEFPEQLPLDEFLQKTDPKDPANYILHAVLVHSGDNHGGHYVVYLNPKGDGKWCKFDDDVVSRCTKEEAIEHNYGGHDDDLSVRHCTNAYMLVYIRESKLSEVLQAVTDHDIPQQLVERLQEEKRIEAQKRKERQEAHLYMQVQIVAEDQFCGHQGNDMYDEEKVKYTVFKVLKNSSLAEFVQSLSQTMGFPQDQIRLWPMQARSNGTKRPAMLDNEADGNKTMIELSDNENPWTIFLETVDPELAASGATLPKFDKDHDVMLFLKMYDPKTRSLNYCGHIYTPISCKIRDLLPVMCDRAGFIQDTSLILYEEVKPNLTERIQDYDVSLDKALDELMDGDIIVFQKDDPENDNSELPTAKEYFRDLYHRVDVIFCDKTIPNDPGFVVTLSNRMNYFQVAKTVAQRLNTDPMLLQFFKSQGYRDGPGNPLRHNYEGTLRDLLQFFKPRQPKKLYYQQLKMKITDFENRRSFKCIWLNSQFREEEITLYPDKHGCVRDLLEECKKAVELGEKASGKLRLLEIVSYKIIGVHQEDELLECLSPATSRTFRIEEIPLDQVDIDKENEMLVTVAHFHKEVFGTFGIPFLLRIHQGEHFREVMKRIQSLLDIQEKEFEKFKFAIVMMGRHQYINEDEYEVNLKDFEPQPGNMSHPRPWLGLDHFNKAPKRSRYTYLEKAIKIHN
# [3] = AUC in BALB/c mouse at 30 mg/kg, po; format: ADME, organism-based; details: in vivo
# [4] = system: NCI-H526; test: Cytotoxicity against human NCI-H526 cells expressing p53 mutant assessed as reduction in cell viability measured after 5 days by CellTiter-Glo assay; format: functional; details: NCI-H526, 120 h
# [5] = Cytotoxicity against human RKO cells assessed as reduction in cellular ATP level measured after 5 days by CellTiter-Glo assay; format: cell-based
# [6] = system: NCI-H526; details: Homo sapiens
# Description: Antitumor activity against human NCI-H526 cells xenografted in athymic nu/nu mouse assessed as tumor growth inhibition at 50 mg/kg, po administered twice daily for 24 days and measured twice per week
# [7] = system: MM1.S; test: Cytotoxicity against human MM1S cells expressing wild type p53 assessed as reduction in cell viability measured after 5 days by CellTiter-Glo assay; format: functional; details: 120 h
# [8] = AUC in nude mouse at 30 mg/kg, po; format: ADME, organism-based; details: in vivo
# [9] = Protein binding in mouse plasma by ultracentrifugation method; format: ADME, cell-free; details: read-out: PPB (converted)
# [10] = system: MM1.S; test: Antitumor activity against human MM1S cells xenografted in NOD/SCID mouse assessed as tumor growth inhibition at 50 mg/kg, po administered twice daily and measured twice per week relative to control; format: functional; details: read-out: TGI
# [11] = AUC in NOD/SCID mouse at 30 mg/kg, po; format: ADME, organism-based; details: in vivo
# [12] = biological target: T1, Ubiquitin carboxyl-terminal hydrolase 7; test: Inhibition of USP7 in human RKO cells transfected with p53 luciferase reporter vector assessed as increase in p53-dependent luciferase activity measured after 18 hrs by BrightGlo luciferase assay; format: cell-based
# [13] = Toxicity in NOD/SCID mouse xenografted with human MM1S cells assessed as decrease in body weight at 50 mg/kg, po administered twice daily and measured twice per week relative to control; format: organism-based; design: scale not given: the % may be the effect or the level left; details: in vivo
# [14] = biological target: T2, Ubiquitin carboxyl-terminal hydrolase 1 (Homo sapiens, UniProt O94782); test: Inhibition of His6-tagged human USP1 expressed in insect Sf21 cells coexpressing untagged UAF1 assessed as cleavage of Ubiquitin-Rhodamine110-glycine to Ubiquitin and Rhodamine110-glycine using Ubiquitin-Rhodamine110-glycine as substrate by fluorescence based analysis
# T2 sequence (O94782 whole entry): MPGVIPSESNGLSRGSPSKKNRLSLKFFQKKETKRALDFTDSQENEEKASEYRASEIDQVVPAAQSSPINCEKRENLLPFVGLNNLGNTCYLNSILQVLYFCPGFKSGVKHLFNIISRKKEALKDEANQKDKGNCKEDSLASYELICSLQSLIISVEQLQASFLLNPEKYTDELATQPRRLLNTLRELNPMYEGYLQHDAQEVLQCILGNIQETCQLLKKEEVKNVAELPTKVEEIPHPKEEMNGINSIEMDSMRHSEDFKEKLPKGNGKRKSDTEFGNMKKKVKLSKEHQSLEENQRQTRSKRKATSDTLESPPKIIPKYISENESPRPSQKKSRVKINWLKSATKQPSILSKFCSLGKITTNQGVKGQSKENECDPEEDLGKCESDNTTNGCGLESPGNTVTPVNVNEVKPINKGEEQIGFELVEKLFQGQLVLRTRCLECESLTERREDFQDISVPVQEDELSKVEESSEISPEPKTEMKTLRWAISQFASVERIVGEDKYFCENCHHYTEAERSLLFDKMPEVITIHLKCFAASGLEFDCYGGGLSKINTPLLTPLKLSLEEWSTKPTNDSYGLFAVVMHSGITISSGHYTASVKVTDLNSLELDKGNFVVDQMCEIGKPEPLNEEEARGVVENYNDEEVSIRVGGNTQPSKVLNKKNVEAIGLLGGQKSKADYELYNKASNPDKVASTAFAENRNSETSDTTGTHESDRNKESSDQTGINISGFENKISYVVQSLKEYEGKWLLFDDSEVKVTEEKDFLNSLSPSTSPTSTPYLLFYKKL
# [15] = biological target: T3, Ubiquitin carboxyl-terminal hydrolase 47 (Homo sapiens, UniProt Q96K76); test: Inhibition of USP47 (unknown origin) by biochemical assay
# T3 sequence (Q96K76 whole entry): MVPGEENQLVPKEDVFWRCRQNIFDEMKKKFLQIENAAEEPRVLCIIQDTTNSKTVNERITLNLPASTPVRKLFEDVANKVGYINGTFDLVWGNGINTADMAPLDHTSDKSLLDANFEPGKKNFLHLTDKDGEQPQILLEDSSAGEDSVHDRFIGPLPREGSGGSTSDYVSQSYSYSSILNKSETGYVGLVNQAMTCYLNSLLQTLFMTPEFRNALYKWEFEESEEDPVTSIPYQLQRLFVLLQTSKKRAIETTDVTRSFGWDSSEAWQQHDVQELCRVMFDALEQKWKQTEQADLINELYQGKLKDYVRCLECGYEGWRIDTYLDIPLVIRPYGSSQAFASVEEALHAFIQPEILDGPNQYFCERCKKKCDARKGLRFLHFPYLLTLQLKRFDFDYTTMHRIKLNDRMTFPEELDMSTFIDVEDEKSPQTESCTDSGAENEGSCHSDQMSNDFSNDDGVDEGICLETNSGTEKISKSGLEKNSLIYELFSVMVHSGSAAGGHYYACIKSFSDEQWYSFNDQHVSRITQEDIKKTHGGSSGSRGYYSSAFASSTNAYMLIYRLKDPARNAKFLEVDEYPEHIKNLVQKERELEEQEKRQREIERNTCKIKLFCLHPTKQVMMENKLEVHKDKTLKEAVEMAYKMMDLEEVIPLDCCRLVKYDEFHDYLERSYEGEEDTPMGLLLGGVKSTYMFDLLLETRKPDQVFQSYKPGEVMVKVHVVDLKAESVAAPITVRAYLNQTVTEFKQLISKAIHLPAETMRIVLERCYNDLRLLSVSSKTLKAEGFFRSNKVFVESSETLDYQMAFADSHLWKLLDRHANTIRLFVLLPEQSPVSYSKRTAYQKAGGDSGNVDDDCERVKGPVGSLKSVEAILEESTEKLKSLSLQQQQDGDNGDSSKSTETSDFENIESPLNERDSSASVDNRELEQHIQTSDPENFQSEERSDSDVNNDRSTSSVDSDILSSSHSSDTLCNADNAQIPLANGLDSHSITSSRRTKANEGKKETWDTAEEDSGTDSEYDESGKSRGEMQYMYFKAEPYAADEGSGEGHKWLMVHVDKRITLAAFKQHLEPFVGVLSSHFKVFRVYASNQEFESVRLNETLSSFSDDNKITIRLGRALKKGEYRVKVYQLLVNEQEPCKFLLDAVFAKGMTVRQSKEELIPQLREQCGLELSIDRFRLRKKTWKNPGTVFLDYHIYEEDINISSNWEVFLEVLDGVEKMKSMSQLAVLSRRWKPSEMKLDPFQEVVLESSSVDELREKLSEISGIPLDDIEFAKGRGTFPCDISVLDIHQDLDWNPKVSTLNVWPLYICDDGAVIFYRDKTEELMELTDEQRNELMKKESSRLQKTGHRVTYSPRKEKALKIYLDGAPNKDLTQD
# [16] = biological target: T4, Ubiquitin carboxyl-terminal hydrolase isozyme L3 (Homo sapiens, UniProt P15374); test: Inhibition of human GST-tagged UCHL3 expressed in Escherichia coli assessed as cleavage of Ubiquitin-Rhodamine110-glycine to Ubiquitin and Rhodamine110-glycine using Ubiquitin-Rhodamine110-glycine as substrate by fluorescence based analysis
# T4 sequence (P15374 whole entry): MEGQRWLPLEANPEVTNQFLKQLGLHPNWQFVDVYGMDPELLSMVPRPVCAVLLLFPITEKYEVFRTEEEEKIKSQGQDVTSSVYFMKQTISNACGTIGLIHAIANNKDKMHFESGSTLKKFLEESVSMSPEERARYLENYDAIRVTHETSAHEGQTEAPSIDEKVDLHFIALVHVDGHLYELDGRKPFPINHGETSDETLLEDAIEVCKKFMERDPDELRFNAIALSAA
# Voltage-gated inwardly rectifying potassium channel KCNH2, sequence (Q12809 whole entry): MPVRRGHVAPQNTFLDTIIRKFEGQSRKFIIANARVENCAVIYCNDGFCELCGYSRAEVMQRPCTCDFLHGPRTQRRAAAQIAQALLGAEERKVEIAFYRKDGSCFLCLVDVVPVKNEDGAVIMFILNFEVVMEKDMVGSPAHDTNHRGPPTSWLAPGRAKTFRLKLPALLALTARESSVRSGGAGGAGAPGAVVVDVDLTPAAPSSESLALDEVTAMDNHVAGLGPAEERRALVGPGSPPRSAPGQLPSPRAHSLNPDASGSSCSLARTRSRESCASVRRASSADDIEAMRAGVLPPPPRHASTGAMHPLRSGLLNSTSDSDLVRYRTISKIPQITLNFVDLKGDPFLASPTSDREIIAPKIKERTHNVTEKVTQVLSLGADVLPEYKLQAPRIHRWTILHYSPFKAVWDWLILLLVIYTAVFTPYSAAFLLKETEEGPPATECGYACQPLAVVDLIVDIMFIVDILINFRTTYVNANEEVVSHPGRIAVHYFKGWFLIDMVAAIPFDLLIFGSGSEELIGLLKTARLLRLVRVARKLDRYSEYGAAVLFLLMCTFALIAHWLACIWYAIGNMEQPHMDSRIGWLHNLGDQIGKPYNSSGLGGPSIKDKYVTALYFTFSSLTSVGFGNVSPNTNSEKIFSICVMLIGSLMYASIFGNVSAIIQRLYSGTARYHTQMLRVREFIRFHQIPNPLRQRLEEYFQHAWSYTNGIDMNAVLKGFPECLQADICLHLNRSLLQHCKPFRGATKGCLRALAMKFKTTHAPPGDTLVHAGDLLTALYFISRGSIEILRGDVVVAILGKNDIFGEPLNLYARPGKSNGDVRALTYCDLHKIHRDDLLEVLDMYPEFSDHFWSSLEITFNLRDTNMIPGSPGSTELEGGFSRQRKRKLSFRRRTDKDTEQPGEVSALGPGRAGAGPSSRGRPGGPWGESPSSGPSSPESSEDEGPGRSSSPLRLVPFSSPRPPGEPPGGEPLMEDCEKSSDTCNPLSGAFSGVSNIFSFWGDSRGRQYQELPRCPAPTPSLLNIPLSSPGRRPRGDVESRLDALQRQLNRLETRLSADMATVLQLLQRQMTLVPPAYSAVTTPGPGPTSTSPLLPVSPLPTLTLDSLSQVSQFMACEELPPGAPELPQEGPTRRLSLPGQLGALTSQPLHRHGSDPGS
IC50 [2] [µM],AUC [3] [ng·h/mL],AUC [8] [ng·h/mL],fraction unbound [9],AUC [11] [ng·h/mL],EC50 [12] [µM],IC50 [14] [µM],IC50 [15] [µM],IC50 [16] [µM],SMILES,IC50 [1] [µM],CC50 [4] [µM],CC50 at 120 h [5] [µM],TGI [6],CC50 [7] [µM],inhibition in vivo at 50 mg/kg [10] [%],Activity [13] [%]
0.00044,9400,4600,0.047,5500,0.025,–,–,–,Cc1cc(Cl)cc(-c2ccnc3cc(CN4C(=O)C5C(C4=O)C5(C)C)sc23)c1C[C@@H]1CNCCO1 (stereo not given in full),4.2,0.45,13,Active,0.089,100,< 90
–,–,–,–,–,–,> 80,> 80,> 80,CC(Cc1ccccc1)C(=O)N1CCC(O)(Cn2cnc3ccccc3c2=O)CC1 (stereo not given),–,–,–,–,–,–,–
5.6,–,–,–,–,–,> 80,> 80,> 80,Nc1cc(-c2cc(Cl)cc3c2OC(C(=O)N2CCNCC2)C3)ccn1 (racemic),–,–,–,–,–,–,–
